{"source": "patent US20130236922A1", "about": "“COPPER(I)-ION SELECTIVE FLUORESCENT PROBE, METHOD FOR PREPARING THE SAME, METHOD FOR DIAGNOSING MALIGNANT DISEASE AND DIAGNOSIS KIT USING THE PROBE” (priority 2011, published 2013)", "key": {"[1]": {"experiment": "One-photon fluorescence intensity at different pH's with and without copper(I) ions", "details": "compound 2 μM, HEPES buffer, 0 and 2 μM copper(I) ions, biologically significant pH ranges, excitation 365 nm", "excerpt": "Light with a wavelength of 365 nm was used for excitation. […] Thus, from FIG. 5 and FIG. 6, it can be seen that the compound of Chemical Formula 2 according to the present disclosure is capable of detecting copper(I) ions with little interference by pH or other metal ion."}, "[2]": {"experiment": "One-photon and two-photon fluorescence titration with free copper(I) ions", "format": "binding", "details": "for Kd: HEPES 20 mM, thiourea 100 μM, pH 7.0, 1:1 binding model", "description": "Absorption spectra were obtained using a Hewlett-Packard 8453 diode array spectrophotometer and fluorescence spectra were obtained using an Amico-Bowman series 2 luminescence spectrometer equipped with a 1-cm standard quartz cell. Fluorescence quantum yield was determined according to the literature using Coumarin 307 as reference compound (J. N. Demas, G. A. Crosby, J. Phys. Chem. 1971, 75, 991).\nFIGS. 2A and 2B show one-photon absorption (FIG. 2A) and fluorescence (FIG. 2B) spectra for the compound of Chemical Formula 2 (2 μM) in the presence of free copper(I) ions (0-360 pM). Referring to FIGS. 2A and 2B, when copper(I) ions were added to the compound of Chemical Formula 2 in HEPES buffer, the fluorescence intensity increased gradually with the concentration of the copper(I) ions, without effect on the absorption spectrum. It may be because the metal ion forms a complex with the compound of Chemical Formula 2 and blocks photoinduced electron transfer (PeT). When the concentration of free copper(I) ion was 360 pM, the fluorescence intensity increased by about 4 times. A similar behavior was also observed for two-photon fluorescence spectra (see FIG. 3).\nDissociation constants (Kd) of the compound of Chemical Formula 2 for one-photon and two-photon processes were calculated from fluorescence titration curves (see FIG. 4) (HEPES buffer was used. [HEPES]=20 mM, [thiourea]=100 μM, pH=7.0)."}, "[3]": {"system": "HeLa cells", "experiment": "Two-photon microscopy detection of copper(I) ions in cultured HeLa cells", "format": "cell-based", "details": "compound 2 μM, 37° C., 20 minutes", "excerpt": "In order to investigate the applicability of the compound of Chemical Formula 2 in biological cells, copper(I) ions in cultured HeLa cells were detected by two-photon microscopy."}, "[4]": {"experiment": "Solubility in HEPES buffer by the fluorescence method", "format": "physicochemical", "details": "aqueous buffer, HEPES buffer ([HEPES]=20 mM, pH 7.0)", "description": "FIGS. 1A and 1B show normalized absorption (FIG. 1A) and fluorescence (FIG. 1B) spectra of the compound of Chemical Formula 2 in 1,4-dioxane, DMF, ethanol and HEPES buffer ([HEPES]=20 mM, pH 7.0). Light with a wavelength of 365 nm was used for excitation. Solubility of the compound of Chemical Formula 2 in HEPES buffer ([HEPES]=20 mM, pH 7.0) was measured as 4.0 μM by the fluorescence method disclosed in the literature (H. M. Kim and B. R. Cho, Acc. Chem. Res., 2009, 42, 863; M. K. Kim, C. S. Lim, J. T. Hong, J. H. Han, H. Y. Jang, H. M. Kim and B. R. Cho, Angew. Chem., Int. Ed., 2010, 49, 364; J. H. Lee, C. S. Lim, Y. S. Tian, J. H. Han and B. R. Cho, J. Am. Chem. Soc., 2010, 132, 1216; H. M. Kim and B. R. Cho, Chem. Asian J., 2011, 6, 58), which is sufficient for staining of cells."}, "[5]": {"experiment": "Reactivity for copper(I) ions compared to competing metal ions (relative fluorescence intensity)", "details": "compound 2 μM", "description": "In FIG. 5, open bars show relative fluorescence intensity of the compound of Chemical Formula 2 (2 μM) resulting from reaction with Na^+, K^+, Mg^2+ and Ca^2+ (1 mM), Hg^2+ (2 μM) and other cations (50 mM) in 20 mM HEPES buffer (pH 7.0) before adding copper(I) ions, and filled bars show relative fluorescence intensity after adding 2 μM copper(I) ions (The cations indicated as numbers below the bars are as follows: (1) Cu^+; (2) Na^+; (3) K^+; (4) Mg^2+; (5) Ca^2+; (6) Mn^2+; (7) Fe^2+, (8) Co^2+; (9) Ni^2+; (10) Cu^2+; (11) Zn^2+; (12) Hg^2+)."}, "[6]": {"experiment": "Two-photon fluorescence spectra in the presence of copper(I) ions (Fd value)", "format": "physicochemical", "details": "at 750 nm, HEPES buffer, 2 μM copper(I) ions", "excerpt": "Referring to FIG. 7, the two-photon spectrum of the compound of Chemical Formula 2-Cu^+ complex in HEPES buffer indicated an Fd value of 67 GM at 750 nm, more than 13-fold as compared to BODIPY (<5 GM 750 nm). Accordingly, it can be conjectured that a sample stained with the compound of Chemical Formula 2 gives a much brighter two-photon image than one stained with the BODIPY dye."}, "[7]": {"experiment": "Dissociation constant for the multiphoton process of the zinc(II) ion-selective probe", "format": "binding", "details": "Zn(II) ions; read-out: Dissociation constant (KdTP) for the multiphoton process", "excerpt": "Accordingly, the compound could be used to detect Zn(II) ions in the picomolar (pM) to nanomolar (nM) range by multiphoton microscopy."}}}
{"smiles": "CCSCCSCCN(CCSCCSCC)c1ccc(NC(=O)CN(C)c2ccc3cc(C(C)=O)ccc3c2)cc1", "note": "[Chemical Formula 2]", "values": [{"measurement": "Dependence of reactivity on pH of reaction solutions", "setting": "[1]", "value": "irrelevant of the pH"}, {"measurement": "Kd", "setting": "[2]; read-out: Dissociation constant (Kd) for the copper(I) ion, one-photon process", "value": "0.016 ± 0.002", "unit": "nM"}, {"measurement": "Kd", "setting": "[2]; read-out: Dissociation constant (Kd) for the copper(I) ion, two-photon process", "value": "0.02 ± 0.003", "unit": "nM"}, {"measurement": "Increase of fluorescence intensity on adding copper(I) ions", "setting": "[2]; free copper(I) ion 360 pM, compound 2 μM, HEPES buffer, one-photon", "value": "about 4 times"}, {"measurement": "TPM image of labeled HeLa cells", "setting": "[3]", "value": "very bright TPM image"}, {"measurement": "solubility", "setting": "[4]", "value": 4, "unit": "µM"}, {"measurement": "Interference by Hg2+", "setting": "[5]; Hg2+ 2 μM, 20 mM HEPES pH 7.0", "value": "only exception"}, {"measurement": "Interference by competing metal ions Na+, K+, Mg2+, Ca2+, Mn2+, Fe2+, Co2+, Ni2+, Cu2+, Zn2+", "setting": "[5]; 20 mM HEPES pH 7.0, before and after adding 2 μM copper(I) ions", "value": "not interfered"}, {"measurement": "Fd value of the Cu+ complex", "setting": "[6]", "value": 67, "unit": "GM"}]}
{"smiles": "CC(=O)c1ccc2cc(N(C)CC(=O)Nc3ccc(NCCN(Cc4ccccn4)Cc4ccccn4)cc3)ccc2c1", "note": "[Preparation Example 2]", "values": [{"measurement": "Kd", "setting": "[7]", "value": 1.1, "unit": "nM"}]}
